Here are results for 2 molecules from ChEMBL document CHEMBL1125947, “Triply-convergent syntheses of two homochiral arene-fused prostacyclin analogs related to U68,215” (Bioorg Med Chem Lett, 1991).

The assay is filed under the species Homo sapiens. Kind of assay: Compound was tested for inhibitory activity against collagen induced platelet aggregation. In kind it is functional.

By IC50 is commonly meant the concentration that gives 50% inhibition. Lower therefore signals inhibition by little substance.

With `O=C(O)COc1cccc2c1C[C@H]1C[C@@H](O)[C@H](C#C[C@@H](O)C3CCCCC3)[C@H]1C2`, the IC50 was 2.9 nM. In other words, the single-digit nanomolar range.

As for `O=C(O)COc1cccc2c1C[C@H]1C[C@@H](O)[C@H](C#C[C@@H](O)C3CCCCC3)[C@@H]1C2`, it took 52 nM to reach half-maximal inhibition (IC50).
